Marks after values point to notes of the source that are not given here.
Assays:
male mice = assay: Effect of ICN on sexual behavior (ejaculation experiments); type: in vivo
From the text: Selected 50 mice including male: 28-32g and female: 24-26g. The age of mice is over 8 weeks. The mice were divided normal group, suspend-loaded group, large dosage of ICN group, small dosage of ICN group and positive control group. The index of major sexual behaviors of male mice is ejaculation experiments operated on 15th day.

interleukin-2 (rIL-2) = assay: Effect of ICN on interleukin-2 (rIL-2); type: in vivo; conditions: treatment group
From the text: The methods of determination rIL-2 were regular.

white blood cells = assay: Effect of ICN on white blood cells in rats treated by cyclophosphamide; type: in vivo
From the text: Action of ICN and cyclophosphamide on white blood cells was investigated by means of white blood cells assay. […] Method of testing in animal is standard. The dosage of ICN and cyclophosphamide is the same as in above examples. Time of treatment is 10 days.

lymphocytes = assay: Effect of ICN on lymphoblastoid transformation (3H-TdR liquid scintillation); type: in vivo, mice; conditions: 3H-TdR uptake, PHA-stimulated lymphocytes
Description: (1) Experimental procedure of animal is the same as in Example 2.
(2) Lemphoblastoid transformation test:
I. Reagents and conditions for cell culture
a. Culture media—RPMI 1640, medium 199 minimal essential medium (Eagle).
b. Buffer—Hepes buffer, the final concentration at 37° C. was 25 mM, to maintain the pH of the medium at 7.31.
c. Serum—generally 15-205 fetal bovine serum was incorporated, for lymphocytes from mice, 5% was used.
d. Gaseous phase—5% CO2 in air.
e. Cell concentration—generally 1-2 c 10^6/ml.
f. Stimulants—20μl/ml for phytohemagglutinin containing polysaccharide (PHA-M) or 10 μl/ml for polysaccharide-free purified phytohemagglutinin (PHA-P).
II. Measured by liquid scintillation
a. The conditions of cell culture are same as above. ^3H-TdR was added after 48 hours of incubation at a final concentration of 1 μCi/ml and continued the incubation for 24 hours.
b. Washed the cells twice with cold normal saline and the erythrocytes were lysed. The intact lymphocytes were again washed once with cold saline. Spun down the lymphocytes and added 2 ml of 10% trichloroacetic acid to precipitate the protein. Washed twice with normal saline. Added 2 ml of ethanol:ether (1:1) to wash once. 0.2 ml of formic acid was then added for digestion till the precipitate was dissolved.
c. Added 4 ml of scintillation fluid to 0.1 ml of the final sample and counted in a liquid scintillation counter.

Lipoperoxides = assay: Effect on peroxidation (hepatic lipoperoxide content); type: in vivo
Description: The animal experiments were performed as previously described. Hepatic lipoperoxide content was determined. In the present study, the effect of SCS on lipoperoxides was examined. It is known that the pathogenesis of CCl4—induced hepatic damage involved reactive oxidant species increasing from the metabolism. The liver injure caused by CCl4 is due to the formation of a reactive toxic metabolite by the hepatic cytochrome P-450 system.

testosterone = assay: Effect of ICN on testosterone (radioimmune method); type: in vivo, Wistar male rats
Description: Thirty normal Wistar male rats weighing 280+20 g were selected.
The rats were killed 30th days after the administration. The testosterone level of the rats in various groups was determined by using radioimmune method. The index of testis was determined. Control group was pathological model group. In control group, rats treated by cyclophosphamide (CYE). Rats treated by ICN+CYE in treatment group.

human blood lymphocytes = assay: Effects of ICN on immune function of human blood lymphocytes (3H-TdR incorporation); type: cell-based; conditions: for CPM (3H-TdR incorporation into lymphocytes): ICN added to culture medium
Description: 2 ml of venous blood, heparinized was obtained from each of the participants. […] MEM was supplemented with 0.125 ml of heat-inactivated fetal calf serum, 100 units of Penicillin and 0.1 mg of streptomycin per ml of medium. Culture medium was divided into treated (ICN) and control group. ICN was added to the culture medium of treatment group. […] The ^3H-thymidine (^3H-TdR) was added into all the cultures (2 μci/ml) for last 12 hours of culture. The cells were harvested on 0.45 μm filters, washed with phosphate buffer (ph 7.4) and bleached with H2O2. The filters were then dried and the incorporation of ^3H-TdR into lymphocytes cell was measured by scintillation counter.

peritoneal macrophage = assay: Effect of ICN on phagocytosis of peritoneal macrophage; type: in vivo; conditions: mice, ICN 5.5 mg/kg i.p. daily for 5 days, cyclophosphamide 4.5 mg/kg; macrophages with phagocytized chick red blood cells per 100 macrophages
Description: The control mice were injected with same volume of normal saline. These injections were repeated daily for 5 days, both treated and control group were injected intraperitoneally with cyclosphosphamide. The dosage of cyclophosphamide is 4.5 mg/kg. The same experimental procedure for example 3, 4 and 5 in testing mice were used. Added 0.02 ml of 5% washed chick red blood cell suspension to 0.5 ml of the peritoneal exudates. Shook gently to mix and incubate at 37° C. for 5 minutes. Dipped two cover slips, closed to each other, in the above mixture and incubated for 30 minutes for the migration of the macrophages along the cover slips, fixed and stained with Sharma stain. Examined microscopically for: Phagocytic rate—number of macrophages with phagocytized chick red blood cells per 100 macrophages counted. Method of animal model is regular.

[1] = test system: bone marrow stem cells (CFU-S); assay: Effects of ICN on hemopoietic system (spleen colony assay); type: in vivo, mice
From the text: With increased cells in bone-marrow (BMC), endogenous colonies in spleen and higher ^3H-TdR uptake in marrow and spleen. The level of serum colony stimulating factor (CSF) increased after injection.

[2] = mice treated by cyclophosphamide

## Icariin [ICN]
Male mice; male mice, 15th day
  Ejaculation proportion: 93%
Male mice; summary of Table 4
  treatment of infertility (in words): marked efficiency
interleukin-2 (rIL-2)
  IL-2 (U/ml) ± SD: 79.0 ± 8.5 U/ml
White blood cells; rats
  protection of white blood cells from killing effect of cyclophosphamide: protected
White blood cells; rats treated by cyclophosphamide, 10 days treatment
  White blood cells × 10^3/cm^3 ± SD: 12.8 ± 2.0* 10^3/cm^3
lymphocytes
  CPM ± SD (lymphoblastoid transformation): 1150 ± 120 CPM
Lipoperoxides; 1 h
  Lipoperoxides: 0.75 ± 0.08 mmol MDA/g liver protein
Lipoperoxides; 3 h
  Lipoperoxides: 0.70 ± 0.07 mmol MDA/g liver protein
Lipoperoxides; 6 h
  Lipoperoxides: 0.80 ± 0.9 mmol MDA/g liver protein
Lipoperoxides; 12 h
  Lipoperoxides: 0.70 ± 0.9 mmol MDA/g liver protein
Lipoperoxides; 24 h
  Lipoperoxides: 1.0 ± 0.12 mmol MDA/g liver protein
testosterone; rats treated by ICN+CYE (cyclophosphamide), killed 30th day after administration, X ± SD
  Testosterone level: 154.6 ± 19.8 ng/dL
testosterone; summary of Table 1
  level of testosterone (in words): increase the level of testosterone significantly
Human blood lymphocytes; Old (n = 20)
  CPM (3H-TdR incorporation into lymphocytes): 2500 ± 350 CPM
Human blood lymphocytes; Young (n = 20)
  CPM (3H-TdR incorporation into lymphocytes): 8155 ± 986 CPM
Human blood lymphocytes; summary of Table 5-10
  human immune function (in words): increase human immune function significantly
Peritoneal macrophage
  Phagocytic (rate ± SD): 28.5 ± 3.0
[1]; mice
  protection of stem cells of bone marrow from killing effect of cyclophosphamide: protected
[1]; [2]
  3H-TdR uptake in marrow and spleen: higher
  cells in bone-marrow (BMC): increased
  endogenous colonies in spleen: increased
  recovery rate of hemopoieses: markedly improve
[1]; mice treated by cyclophosphamide, spleen colony assay
  Mean (CFU-S ± SD): 27.2 ± 3.0
